Values of other authors as cited in article PMC8347148, “An Evaluation of Human Induced Pluripotent Stem Cells to Test for Cardiac Developmental Toxicity” (International Journal of Molecular Sciences, 2021).

Details: can be as high as; cited from earlier work

SMILES: CN1CCC[C@H]1c1cccnc1 [nicotine]
- nicotine concentration in fetal serum: ≤ 15.4 µM
